Here are results for 1 compound from patent publication US6685915B2, “Extended-linear polymeric contrast agents, and synthesizing methods, for medical imaging” (General Electric Company, priority 1999, dated 2004).

A short description of the series: blood circulation time. Type of series: in vivo.

Text: Furthermore, the blood circulation times can be adjusted by varying the polymer length.

In the case of `O=C([O-])CN(CCN(CC(=O)[O-])CC(=O)O)CCN(CC(=O)[O-])CC(=O)O.[Gd+3]` [Gd-DTPA, gadolinuim- diethylentriaminepentaaceticacid], the circulation time constant amounted to 15 min.
